Test systems include DLD-1; LXFL 529; DMS-273; SNB-78; RXF 631; HOP-18; DMS-114; KM-20L2; XF498.
Assay in all cases: NCI anticancer screen, dose series, 48 h

Molecules are shown by their SMILES.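 48-hour exposure; five concentrations; linearly interpolated endpoints. GI50 = concentration required for 50% inhibition of growth.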 Active and inactive are the calls of the source. Rule as the data show it: active = GI50 up to about 1.1 µM and inactive = higher.

On to `O=C1C(c2ccccc2)=[N+]([O-])c2cc([N+](=O)[O-])c(/C(Cl)=C/c3ccccc3)cc21`, for which the GI50 in the assay on DLD-1 was 14.2 µM (inactive); in the assay with LXFL 529 it was > 10 µM (inactive); with DMS-273, 18.1 µM (inactive); in the assay on SNB-78, 29.4 µM (inactive); in the assay on RXF 631 it was 6.7 µM (inactive); in the assay on HOP-18 it was 24.1 µM (inactive). The GI50 in the assay with DMS-114 was 8.97 µM (inactive).
Consider `O=C(CCc1nnc(S)[nH]1)Nc1cccc(C(F)(F)F)c1`, for which the GI50 in the assay with DLD-1, in the assay with KM-20L2, in the assay with LXFL 529, with DMS-273, with SNB-78 and in the assay on HOP-18 was > 100 µM (inactive) throughout. Besides, the GI50 in the assay with DMS-114 and in the assay with XF498 was > 100 µM (inactive) throughout.
`COc1cccc(NC(=O)CC(=O)n2nc(C)c(/N=N/c3ccccc3)c2C)c1`: the GI50 in the assay on DLD-1 is > 100 µM (inactive); in the assay with LXFL 529, > 100 µM (inactive); in the assay on DMS-273, > 100 µM (inactive); in the assay with SNB-78, > 100 µM (inactive); in the assay on RXF 631, > 100 µM (inactive); with HOP-18 it was 12 µM (inactive). For the same compound, the GI50 with DMS-114 is > 100 µM (inactive); in the assay with XF498 it was 56.9 µM (inactive).
Consider `COC(=O)c1ccc(/N=N/N(C)CO)cc1`, for which the GI50 is 98.6 µM (inactive) in the assay with DLD-1; > 100 µM (inactive) in the assay on KM-20L2; 43.6 µM (inactive) in the assay on LXFL 529; 63.1 µM (inactive) in the assay with DMS-273; 32.5 µM (inactive) in the assay on SNB-78; > 100 µM (inactive) with DMS-114. Besides, the GI50 in the assay with XF498 was 9.44 µM (inactive).
`Cc1nc(Nc2ccccc2)sc1C(=O)NNC(N)=O`: the GI50 with DLD-1, with KM-20L2, in the assay with LXFL 529, with DMS-273, in the assay with SNB-78 and with HOP-18 was > 100 µM (inactive) throughout. In addition, the GI50 in the assay on DMS-114 is 84.5 µM (inactive); with XF498, > 100 µM (inactive).
Turning to `C#CCCCCC#CC1CCCC1C1=CC(=O)c2ccccc21` (centres undefined), the GI50 is 8.71 µM (inactive) with DLD-1; 10.3 µM (inactive) with KM-20L2; 3.49 µM (inactive) in the assay with DMS-273; 12.5 µM (inactive) with HOP-18; 1.48 µM (inactive) with DMS-114; 8.36 µM (inactive) with XF498.
As for `C[n+]1ccn2c3nc4ccccc4nc3c([O-])c(C#N)c21`, the GI50 in the assay with DLD-1 was < 0.01 µM (active); in the assay on LXFL 529, > 100 µM (inactive); with DMS-273 it was > 100 µM (inactive); in the assay on SNB-78, > 100 µM (inactive); in the assay with HOP-18, 84.7 µM (inactive); in the assay on DMS-114 it was > 100 µM (inactive). The GI50 in the assay on XF498 was > 100 µM (inactive).
Take `CSCC[C@@H](NC(=O)[C@H](CC(C)C)NC(=O)C(Cc1cnc[nH]1)NC(=O)CNC(=O)[C@@H](NC(=O)[C@H](C)NC(=O)[C@H](Cc1c[nH]c2ccccc12)NC(=O)[C@H](CCC(N)=O)NC(=O)[C@@H](N)CC(N)=O)C(C)C)C(N)=O` (some centres undefined): the GI50 with DLD-1, in the assay on KM-20L2, with DMS-273, in the assay on SNB-78, in the assay with HOP-18 and with DMS-114 was > 100 µM (inactive) throughout. Besides, the GI50 in the assay with XF498 was > 100 µM (inactive).
`COC(=O)C12CC(c3ccccc31)C1C(=O)OC(=O)C12` (centres undefined): the GI50 in the assay with DLD-1, in the assay with KM-20L2, in the assay on LXFL 529, with DMS-273, in the assay with SNB-78 and in the assay on DMS-114 was > 100 µM (inactive) throughout. In the assay on XF498, the GI50 is > 100 µM (inactive).
For the compound `O=C1CSC(Cc2nc3ccccc3[nH]2)=N1`, the GI50 in the assay on DLD-1 is 18.2 µM (inactive); in the assay on KM-20L2, 14.1 µM (inactive); in the assay on LXFL 529, 16.3 µM (inactive); with DMS-273, 15.4 µM (inactive); with SNB-78, 40.5 µM (inactive); in the assay on HOP-18 it was 23.4 µM (inactive). In addition, the GI50 was 13.1 µM (inactive) in the assay with DMS-114 and 20.4 µM (inactive) with XF498.
Turning to `O=C(O)CCc1cccc2c1oc1c(CCC(=O)O)cccc12`, the GI50 with DLD-1 is > 100 µM (inactive); in the assay on KM-20L2 it was > 100 µM (inactive); in the assay on LXFL 529, > 100 µM (inactive); in the assay on DMS-273 it was > 100 µM (inactive); in the assay with SNB-78 it was 48.1 µM (inactive); in the assay with HOP-18 it was > 100 µM (inactive). Besides, the GI50 with DMS-114 and with XF498 was > 100 µM (inactive) each time.
`CCC(COC(=O)CC[C@@H](NC(=O)C(C)NC(=O)C(C)OC1C(O)C(CO)OC(OCc2ccccc2)C1NC(C)=O)C(N)=O)NC1c2ccccc2Nc2cccc([N+](=O)[O-])c21` (some centres undefined): the GI50 with DLD-1 is > 100 µM (inactive); with KM-20L2, > 100 µM (inactive); in the assay with LXFL 529, 41.8 µM (inactive); with DMS-273, > 100 µM (inactive); with SNB-78, > 100 µM (inactive); in the assay on HOP-18 it was 69.2 µM (inactive). Besides, the GI50 in the assay with DMS-114 and with XF498 was > 100 µM (inactive) in each case.
Regarding `COC(c1cccc(C(O)(C(F)(F)F)C(F)(F)F)c1)(C(F)(F)F)C(F)(F)F`, the GI50 with DLD-1 was 20.3 µM (inactive); with KM-20L2, 16.9 µM (inactive); in the assay on LXFL 529 it was 17.5 µM (inactive); with DMS-273 it was 19.3 µM (inactive); in the assay on HOP-18, 18.2 µM (inactive); in the assay with DMS-114 it was 18.6 µM (inactive). Moreover, the GI50 in the assay with XF498 is 15 µM (inactive).
For `CC(O)/C=C/C(CCC(C)CO)C(C)C` (centres undefined), the GI50 with DLD-1, in the assay with LXFL 529, in the assay with DMS-273, in the assay on SNB-78, in the assay with RXF 631 and with DMS-114 was > 100 µM (inactive) each time. Further, the GI50 in the assay with XF498 is > 100 µM (inactive).
As to `NC(=O)c1csc(C2OC(CO)C(O)C2O)n1` (centres undefined), the GI50 with DLD-1 was 8.57 µM (inactive); in the assay with KM-20L2, 43.8 µM (inactive); in the assay on DMS-273, 30.8 µM (inactive); in the assay on SNB-78, 92.7 µM (inactive); in the assay on HOP-18 it was 1170 µM (inactive); in the assay with DMS-114, 61.1 µM (inactive). In addition, in the assay on XF498, the GI50 was 67.8 µM (inactive).
Regarding `Cc1nc(=O)n2c(c1C(=O)Nc1ccc(Cl)cc1)NCCC2`, the GI50 in the assay on LXFL 529, with SNB-78, with DMS-114 and in the assay with XF498 was > 100 µM (inactive) in each case.
As to `O=c1[nH]cc(COCC(F)(F)C(F)(F)C(F)(F)C(F)F)c(=O)[nH]1`, the GI50 in the assay on DLD-1, with KM-20L2, in the assay on LXFL 529, in the assay on HOP-18 and with DMS-114 was > 100 µM (inactive) throughout.
Take `O=C(CSSCC(=O)Nc1ccc(Br)cc1)Nc1ccc(Br)cc1`: the GI50 in the assay on DLD-1 was 18.1 µM (inactive); with KM-20L2, 15.1 µM (inactive); in the assay on LXFL 529 it was 16 µM (inactive); with DMS-273, 16.5 µM (inactive); with SNB-78, 15.1 µM (inactive); in the assay with DMS-114, 14 µM (inactive). Further, in the assay on XF498, the GI50 is 20.1 µM (inactive).
Take `CC(=O)Nc1ccc(C(=O)NN2C(=O)C(Cl)C2c2cc(Br)cc(Br)c2O)cc1` (centres undefined): the GI50 with DLD-1, in the assay with KM-20L2, in the assay on LXFL 529, with DMS-273, in the assay on HOP-18 and with DMS-114 was > 100 µM (inactive) each time. Further, the GI50 in the assay on XF498 was > 100 µM (inactive).
Turning to `Cc1ccccc1NC(=O)CSc1nnc(-c2ccc(/N=C\c3ccc(Cl)cc3)cc2)o1`, the GI50 with KM-20L2, in the assay with LXFL 529, in the assay on DMS-273, in the assay with SNB-78, in the assay with HOP-18 and in the assay with DMS-114 was > 100 µM (inactive) in each case. Further, the GI50 with XF498 was > 100 µM (inactive).
Turning to `Cc1c(-c2ccc(-c3ccccc3F)cc2)nc2ccc(F)cc2c1C(=O)O` [BREQUINAR SODIUM], the GI50 is 0.0875 µM (active) with DLD-1; 0.615 µM (active) with KM-20L2; 0.193 µM (active) with DMS-273; 46.1 µM (inactive) in the assay with HOP-18; 18.1 µM (inactive) in the assay on XF498.
Turning to `C=C(C(=C)P(=S)(c1ccccc1)c1ccccc1)P(=S)(c1ccccc1)c1ccccc1`, the GI50 was > 100 µM (inactive) in the assay on KM-20L2; > 100 µM (inactive) with LXFL 529; > 100 µM (inactive) in the assay on DMS-273; > 100 µM (inactive) in the assay on SNB-78; > 100 µM (inactive) in the assay with HOP-18; 35.2 µM (inactive) with DMS-114. The GI50 with XF498 is 73.6 µM (inactive).
Consider `Cc1cc(C)n(CCNCCn2nc(C)cc2C)n1`, for which the GI50 in the assay with DLD-1, with KM-20L2, with LXFL 529, in the assay on DMS-273, in the assay with SNB-78 and in the assay with DMS-114 was > 100 µM (inactive) throughout.
Take `O=C1/C(=C/c2ccccc2)CN(C(=O)Oc2ccc(Cl)cc2)C/C1=C\c1ccccc1`: the GI50 is 1.11 µM (active) in the assay with DLD-1; 2.71 µM (inactive) with KM-20L2; 1.72 µM (inactive) with LXFL 529; 1.83 µM (inactive) in the assay with DMS-273; 2.96 µM (inactive) in the assay on SNB-78; 13.1 µM (inactive) with HOP-18. Further, the GI50 is 1.79 µM (inactive) in the assay on DMS-114 and 2.29 µM (inactive) in the assay with XF498.
For the compound `CC(=O)c1ccc(NC(=O)C(=O)C(C#N)CC(C)(C)C=O)cc1` (centres undefined), the GI50 with KM-20L2, in the assay on LXFL 529, in the assay on SNB-78 and in the assay with XF498 was > 100 µM (inactive) in each case.
As to `Cc1cccc(C)c1NC(=O)CCC(=O)NC(N)=S`, the GI50 in the assay with DLD-1, with KM-20L2, in the assay with LXFL 529 and in the assay with HOP-18 was > 100 µM (inactive) throughout.
As to `CCCCc1c2c(nc3c1CCCC3=O)CCCC2`, the GI50 in the assay with KM-20L2 is 20 µM (inactive); with LXFL 529, > 100 µM (inactive); in the assay on DMS-273, > 100 µM (inactive); in the assay on DMS-114 it was > 100 µM (inactive); in the assay with XF498, > 100 µM (inactive).

The values are drawn from ChEMBL document CHEMBL1201862, “PubChem BioAssay data set” (2004).
